Among the data in patent publication US10174016B2 (BAYER AKTIENGESELLSCHAFT, priority 2014, dated 2019) are IC50 values, retold here.

The structures appear in SMILES notation. pIC50: −log10 of the molar value. Like-named read-outs stand apart in the source and are kept apart here.

In one test the target is human P2X3 receptor (Homo sapiens (Human), UniProt P56373). Kind of test: Intracellular calcium measurement (FLIPR, Fluo-4) of antagonist activity at human P2X3 receptors. The format is cell-based. To be noted: read-out: hP2X3 IC50. Summed up: (§1)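 Antagonism quantified from peak calcium fluorescence (Fluo-4, FLIPR, 90 sec read) evoked by EC80 α,β-Me-ATP, after a 30 min, 37° C. compound pretreatment in 1% DMSO. Human P2X3- or P2X2/3-expressing cells used; triplicate means fitted for IC50, percent maximal inhibition and Hill coefficient.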

The next test addresses human P2X2/3 receptor (Homo sapiens (Human), UniProt P56373+Q9UBL9). The test is described as follows: Intracellular calcium measurement (FLIPR, Fluo-4) of antagonist activity at human P2X2/3 receptors. The format is cell-based. The settings on record: for pIC50: human P2X2/3, FLIPR calcium assay, agonist α,β-Me-ATP, read-out: hP2X2/3 IC50. The method in brief: as §1
(Calcium assays in cells follow changes in intracellular calcium, usually with a dye or a luminescent sensor.)

The mark [1] stands for this setting: human P2X3, FLIPR calcium assay, agonist α,β-Me-ATP.

Chain of human P2X2/3 receptor (P56373 whole entry): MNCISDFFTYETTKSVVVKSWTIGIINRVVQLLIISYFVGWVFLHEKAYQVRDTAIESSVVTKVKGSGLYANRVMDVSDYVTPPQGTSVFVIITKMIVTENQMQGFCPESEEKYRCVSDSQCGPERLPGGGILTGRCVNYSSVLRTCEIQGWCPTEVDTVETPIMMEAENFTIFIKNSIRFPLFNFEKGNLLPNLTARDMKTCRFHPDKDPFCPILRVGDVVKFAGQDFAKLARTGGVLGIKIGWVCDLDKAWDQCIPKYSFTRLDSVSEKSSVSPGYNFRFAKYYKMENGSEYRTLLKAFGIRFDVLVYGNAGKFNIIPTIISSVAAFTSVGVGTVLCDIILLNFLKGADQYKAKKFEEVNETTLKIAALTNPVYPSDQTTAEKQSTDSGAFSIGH
Chain of human P2X2/3 receptor (Q9UBL9 whole entry): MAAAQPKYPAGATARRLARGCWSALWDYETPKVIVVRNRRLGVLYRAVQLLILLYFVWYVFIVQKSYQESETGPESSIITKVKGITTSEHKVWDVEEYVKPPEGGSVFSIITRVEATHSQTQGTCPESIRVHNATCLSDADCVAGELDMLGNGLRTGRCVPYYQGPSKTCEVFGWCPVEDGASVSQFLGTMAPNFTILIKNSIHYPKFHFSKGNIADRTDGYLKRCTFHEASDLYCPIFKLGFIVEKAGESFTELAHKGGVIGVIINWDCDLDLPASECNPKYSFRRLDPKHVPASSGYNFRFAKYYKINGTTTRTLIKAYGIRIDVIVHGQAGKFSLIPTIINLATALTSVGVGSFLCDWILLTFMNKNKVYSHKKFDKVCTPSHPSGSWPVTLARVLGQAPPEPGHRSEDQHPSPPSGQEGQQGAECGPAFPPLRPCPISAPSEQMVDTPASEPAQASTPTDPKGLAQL
Chain of human P2X3 receptor (P56373 whole entry): as the sequence (P56373 whole entry) above

In the case of `Cc1ccc([C@@H](C)NC(=O)c2cc(OC[C@H]3CCOC3)cc(-c3ncc(C(C)C)s3)c2)nn1` [Example 279, N-[(1R)-1-(6-methylpyridazin-3-yl)ethyl]-3-[5-(propan-2-yl)-1,3-thiazol-2-yl]-5-[(3S)-tetrahydrofuran-3-ylmethoxy]benzamide], the figures for the pIC50 on human P2X3 receptor (setting [1]) and at human P2X2/3 receptor were 6.94 and 6.02, respectively.

As for `Cc1ncc([C@@H](C)NC(=O)c2cc(OC3CCN(CC(F)F)CC3)cc(-c3ncc(C)s3)c2)cn1` [Example 309, 3-{[1-(2,2-difluoroethyl)piperidin-4-yl]oxy}-N-[(1R)-1-(2-methylpyrimidin-5-yl)ethyl]-5-(5-methyl-1,3-thiazol-2-yl)benzamide], the pIC50 on human P2X3 receptor (setting [1]) is 8.10; on human P2X2/3 receptor, 7.15.

Take `Cc1cnc(-c2cc(OCC3CCOCC3)cc(C(=O)N[C@H](C)c3cnc(C(F)(F)F)nc3)c2)s1` [Example 98, 3-(5-Methyl-1,3-thiazol-2-yl)-5-(tetrahydro-2H-pyran-4-ylmethoxy)-N-[(1R)-1-[2-(trifluoromethyl)pyrimidin-5-yl]ethyl]benzamide]: the pIC50 at human P2X3 receptor (setting [1]) was 9.00; on human P2X2/3 receptor, 7.72.

As to `Cc1cnc(-c2cc(OC3CCN(C)CC3F)cc(C(=O)N[C@H](C)c3cnc(C(F)(F)F)nc3)c2)s1` (stereo partly drawn) [Example 212, 3-[(3-fluoro-1-methylpiperidin-4-yl)oxy]-5-(5-methyl-1,3-thiazol-2-yl)-N-{(1R)-1-[2-(trifluoromethyl)pyrimidin-5-yl]ethyl} benzamide], the pIC50 at human P2X3 receptor (setting [1]) was 8.40; at human P2X2/3 receptor, 7.34.

Regarding `CC(C)c1cnc(-c2cc(OC[C@@H]3CCOC3)cc(C(=O)N[C@H](C)c3ccc(C(F)(F)F)nn3)c2)s1` [Example 293, 3-[5-(propan-2-yl)-1,3-thiazol-2-yl]-5-[(3R)-tetrahydrofuran-3-ylmethoxy]-N-{(1R)-1-[6-(trifluoromethyl)pyridazin-3-yl]ethyl}benzamide], the pIC50 at human P2X3 receptor (setting [1]) was 7.20; on human P2X2/3 receptor, 5.94.

`Cc1cnc(-c2cc(OCC3CC3)cc(C(=O)NC(C)c3ncc(F)cc3Cl)c2)s1` (racemic) [Example 5, N-[1-(3-Chloro-5-fluoropyridin-2-yl)ethyl]-3-(cyclopropylmethoxy)-5-(5-methyl-1,3-thiazol-2-yl)benzamide]: the pIC50 is 7.80 at human P2X3 receptor (setting [1]) and 6.46 on human P2X2/3 receptor.

Regarding `CCOC(=O)N1CC2(COc3cc(C(=O)N[C@H](C)c4cnc(C(F)(F)F)nc4)cc(-c4ncc(C)s4)c3)CC1CO2` (stereo partly drawn) [Example 410, Ethyl 1-{[3-(5-methyl-1,3-thiazol-2-yl)-5-({(1R)-1-[2-(trifluoromethyl)pyrimidin-5-yl]ethyl}carbamoyl)phenoxy]methyl}-2-oxa-5-azabicyclo[2.2.1]heptane-5-carboxylate], the pIC50 at human P2X3 receptor (setting [1]) was 7.66; on human P2X2/3 receptor, 6.04.

Take `Cc1cnc(-c2cc(Oc3nnc(C)s3)cc(C(=O)N[C@H](C)c3ccc(C(F)(F)F)nc3)c2)s1` [Example 176, 3-[(5-methyl-1,3,4-thiadiazol-2-yl)oxy]-5-(5-methyl-1,3-thiazol-2-yl)-N-{(1R)-1-[6-(trifluoromethyl)pyridin-3-yl]ethyl}benzamide]: the pIC50 at human P2X3 receptor (setting [1]) is 7.54; at human P2X2/3 receptor, 6.22.

In the case of `Cc1ccc([C@@H](C)NC(=O)c2cc(OC[C@@H]3CCCO3)cc(-c3ncc(C4CCC4)s3)c2)nn1` [Example 285, 3-(5-cyclobutyl-1,3-thiazol-2-yl)-N-[(1R)-1-(6-methylpyridazin-3-yl)ethyl]-5-[(2S)-tetrahydrofuran-2-ylmethoxy]benzamide], the pIC50 was 6.95 at human P2X3 receptor (setting [1]) and 6.12 at human P2X2/3 receptor.

As to `Cc1cnc(-c2cc(OC3COC3)cc(C(=O)N[C@H](C)c3ccc(C(F)(F)F)nc3)c2)s1` [Example 148, 3-(5-methyl-1,3-thiazol-2-yl)-5-(oxetan-3-yloxy)-N-{(1R)-1-[6-(trifluoromethyl)pyridin-3-yl]ethyl}benzamide], the pIC50 is 7.48 on human P2X3 receptor (setting [1]) and 6.10 at human P2X2/3 receptor.

As for `CC[C@@H](NC(=O)c1cc(O[C@@H]2CCOC2)cc(-c2ncc(C)s2)c1)c1cnc(C(F)(F)F)nc1` [Example 22, 3-(5-Methyl-1,3-thiazol-2-yl)-5-[(3R)-tetrahydrofuran-3-yloxy]-N-{(1R)-1-[2-(trifluoromethyl)pyrimidin-5-yl]propyl}benzamide], the pIC50 is 6.88 at human P2X3 receptor (setting [1]) and 6.01 on human P2X2/3 receptor.

`Cc1cc(Oc2cc(C(=O)N[C@H](C)c3cnc(C(F)(F)F)nc3)cc(-c3ncc(C)s3)c2)ccn1` [Example 103, 3-[(2-Methylpyridin-4-yl)oxy]-5-(5-methyl-1,3-thiazol-2-yl)-N-{(1R)-1-[2-(trifluoromethyl)pyrimidin-5-yl]ethyl}benzamide]: the pIC50 was 8.70 at human P2X3 receptor (setting [1]) and 7.85 at human P2X2/3 receptor.

For the compound `Cc1cnc(-c2cc(O[C@@H]3CCOC3)cc(C(=O)N[C@H](C)c3cnc(C(F)(F)F)cn3)c2)s1` [Example 147, 3-(5-methyl-1,3-thiazol-2-yl)-5-[(3R)-tetrahydrofuran-3-yloxy]-N-{(1R)-1-[5-(trifluoromethyl)pyrazin-2-yl]ethyl}benzamide], the pIC50 at human P2X3 receptor (setting [1]) was 8.22; on human P2X2/3 receptor, 6.88.

As for `CCc1cnc(-c2cc(OC[C@H]3CCCO3)cc(C(=O)N[C@H](C)c3cnc(C(F)(F)F)nc3)c2)s1` [Example 269, 3-(5-ethyl-1,3-thiazol-2-yl)-5-[(2R)-tetrahydrofuran-2-ylmethoxy]-N-{(1R)-1-[2-(trifluoromethyl)pyrimidin-5-yl]ethyl}benzamide], the pIC50 at human P2X3 receptor (setting [1]) is 8.70; on human P2X2/3 receptor, 7.46.

Consider `C[C@@H](NC(=O)c1cc(OC[C@H]2CCOC2)cc(-c2ncc(C3CCC3)s2)c1)c1cnc(C(F)(F)F)nc1` [Example 123, 3-(5-Cyclobutyl-1,3-thiazol-2-yl)-5-[(3S)-tetrahydrofuran-3-ylmethoxy]-N-{(1R)-1-[2-(trifluoromethyl)pyrimidin-5-yl]ethyl}benzamide], for which the pIC50 is 7.34 at human P2X3 receptor (setting [1]) and 6.79 at human P2X2/3 receptor.

For the compound `Cc1cnc(-c2cc(OCC3CCOC3)cc(C(=O)NC(C)c3ncc(F)cc3Cl)c2)s1` (stereo in doubt) [Example 69, N-[1-(3-Chloro-5-fluoropyridin-2-yl)ethyl]-3-(5-methyl-1,3-thiazol-2-yl)-5-[(3R)-tetrahydrofuran-3-ylmethoxy]benzamide], the values for the pIC50 on human P2X3 receptor (setting [1]) and on human P2X2/3 receptor were 7.82 and 6.03, respectively.

With `Cc1ccc(CNC(=O)c2cc(OC3CCN(CC(F)(F)F)CC3)cc(-c3ncc(C)s3)c2)nn1` [Example 314, N-[(6-methylpyridazin-3-yl)methyl]-3-(5-methyl-1,3-thiazol-2-yl)-5-{[1-(2,2,2-trifluoroethyl)piperidin-4-yl]oxy}benzamide], the pIC50 was 8.10 at human P2X3 receptor and 6.72 on human P2X2/3 receptor.

For the compound `CCc1cnc(-c2cc(OC3CCOCC3)cc(C(=O)N[C@H](C)c3cnc(C(F)(F)F)nc3)c2)s1` [Example 129, 3-(5-Ethyl-1,3-thiazol-2-yl)-5-(tetrahydro-2H-pyran-4-yloxy)-N-{(1R)-1-[2-(trifluoromethyl)pyrimidin-5-yl]ethyl}benzamide], the pIC50 on human P2X3 receptor (setting [1]) is 8.52; on human P2X2/3 receptor it was 7.48.

In the case of `Cc1ccc([C@@H](C)NC(=O)c2cc(OC[C@@H]3CCOC3)cc(-c3ncc(C(C)C)s3)c2)nn1` [Example 264, N-[(1R)-1-(6-methylpyridazin-3-yl)ethyl]-3-[5-(propan-2-yl)-1,3-thiazol-2-yl]-5-[(3R)-tetrahydrofuran-3-ylmethoxy]benzamide], the figures for the pIC50 at human P2X3 receptor (setting [1]) and on human P2X2/3 receptor were 7.09 and 6.28, respectively.

With `Cc1ccc([C@@H](C)NC(=O)c2cc(OC3CCN(CC(F)(F)F)CC3)cc(-c3ncc(C)s3)c2)nn1` [Example 311, N-[(1R)-1-(6-methylpyridazin-3-yl)ethyl]-3-(5-methyl-1,3-thiazol-2-yl)-5-{[1-(2,2,2-trifluoroethyl)piperidin-4-yl]oxy}benzamide], the values for the pIC50 on human P2X3 receptor (setting [1]) and on human P2X2/3 receptor were 8.10 and 7.46, respectively.

In the case of `COC(C)(C)COc1cc(C(=O)N[C@H](C)c2ccc(Cl)cn2)cc(-c2ncc(Cl)s2)c1` [Example 115, N-[(1R)-1-(5-Chloropyridin-2-yl)ethyl]-3-(5-chloro-1,3-thiazol-2-yl)-5-(2-methoxy-2-methylpropoxy)benzamide], the pIC50 was 7.82 at human P2X3 receptor (setting [1]) and 6.73 on human P2X2/3 receptor.

On to `CCc1cnc(-c2cc(O[C@@H]3CN4CCC3CC4)cc(C(=O)N[C@H](C)c3cnc(C(F)(F)F)nc3)c2)s1` [Example 173, 3-[(3S)-1-azabicyclo[2.2.2]oct-3-yloxy]-5-(5-ethyl-1,3-thiazol-2-yl)-N-{(1R)-1-[2-(trifluoromethyl)pyrimidin-5-yl]ethyl}benzamide], for which, at human P2X3 receptor, the pIC50 was 8.30. Besides, the IC50 (usually the concentration that gives 50% inhibition) at human P2X2/3 receptor (hP2X2/3 IC50 (nM)) was 311 nM.

In the case of `COC(=O)N1CC2(COc3cc(C(=O)N[C@H](C)c4cnc(C(F)(F)F)nc4)cc(-c4ncc(C)s4)c3)CC1CO2` (stereo partly drawn) [Example 409, Methyl 1-{[3-(5-methyl-1,3-thiazol-2-yl)-5-({(1R)-1-[2-(trifluoromethyl)pyrimidin-5-yl]ethyl}carbamoyl)phenoxy]methyl}-2-oxa-5-azabicyclo[2.2.1]heptane-5-carboxylate], the pIC50 on human P2X3 receptor (setting [1]) was 7.66; at human P2X2/3 receptor, 6.01.

Turning to `Cc1ccc(CNC(=O)c2cc(OC3CCN(CC(F)F)CC3)cc(-c3ncc(C)s3)c2)nn1` [Example 307, 3-{[1-(2,2-difluoroethyl)piperidin-4-yl]oxy}-N-[(6-methylpyridazin-3-yl)methyl]-5-(5-methyl-1,3-thiazol-2-yl)benzamide], the pIC50 on human P2X3 receptor is 7.80; on human P2X2/3 receptor, 6.99.

On to `Cc1ccc(CNC(=O)c2cc(OC[C@H]3CCOC3)cc(-c3ncc(C4CCC4)s3)c2)nn1` [Example 122, 3-(5-Cyclobutyl-1,3-thiazol-2-yl)-N-[(6-methylpyridazin-3-yl)methyl]-5-[(3S)-tetrahydrofuran-3-ylmethoxy]benzamide], for which the results for the pIC50 at human P2X3 receptor (setting [1]) and on human P2X2/3 receptor were 6.97 and 5.93, respectively.
